Source: patent publication US20150252048A1, “SUBSTITUTED N-(3-PYRIMIDIN-4-YL)PHENYL)ACRYLAMIDE ANALOGS AS TYROSINE RECEPTOR KINASE BTK INHIBITORS” (UNIVERSITY OF UTAH RESEARCH FOUNDATION, priority 2012, published 2015)
Where “and” joins values, the source holds several entries; their conditions need not be identical. Identical values can stand only once. Like-named read-outs stand apart in the source and are kept apart here.

How the values were obtained:
BTK = BTK (Homo sapiens, UniProt Q06187); experiment: BTK kinase assay: time resolved-FRET (HTRF) assay; type: biochemical; parameters: recombinant full-length human BTK kinase with a (His)6 tag; (His)6; purchased Invitrogen Corporation, Carlsbad, Calif; conditions: 10 nM BTK, 60 μM ATP, 1 μM substrate
Chain of BTK (Q06187 whole entry): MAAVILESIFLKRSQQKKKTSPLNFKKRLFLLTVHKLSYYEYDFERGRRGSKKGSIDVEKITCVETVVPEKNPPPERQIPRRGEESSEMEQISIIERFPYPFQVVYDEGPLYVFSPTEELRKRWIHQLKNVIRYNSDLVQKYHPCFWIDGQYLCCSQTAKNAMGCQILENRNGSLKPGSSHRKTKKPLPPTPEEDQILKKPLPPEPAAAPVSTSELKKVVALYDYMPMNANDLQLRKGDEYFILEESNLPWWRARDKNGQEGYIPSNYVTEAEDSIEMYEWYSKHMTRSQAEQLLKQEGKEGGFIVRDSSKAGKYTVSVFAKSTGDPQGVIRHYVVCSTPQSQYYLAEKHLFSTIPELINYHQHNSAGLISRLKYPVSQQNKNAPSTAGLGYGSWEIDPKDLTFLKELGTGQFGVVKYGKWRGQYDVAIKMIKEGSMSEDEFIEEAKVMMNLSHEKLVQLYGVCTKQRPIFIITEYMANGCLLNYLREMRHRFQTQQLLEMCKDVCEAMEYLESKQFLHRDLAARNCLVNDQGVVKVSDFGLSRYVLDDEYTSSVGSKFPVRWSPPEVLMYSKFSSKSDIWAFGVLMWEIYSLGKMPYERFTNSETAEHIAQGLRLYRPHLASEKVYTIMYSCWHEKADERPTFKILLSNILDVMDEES
Experimental: Activity of compounds was routinely confirmed using a secondary assay as described herein. The secondary assay was a time resolved-FRET kinase assay. Test compound are diluted to desired concentrations in kinase reaction buffer and briefly incubated with BTK kinase (as described above; Invitrogen). The reaction is initiated by the addition of ATP and enzyme substrate, HTRF® KinEASE™-TK Substrate-biotin (Cisbio US, Bedford, Mass.). The composition of the reaction (10 μl) was: 1% v/v DMSO, 10 nM BTK, 60 μM ATP, and 1 μM substrate. After incubation at room temperature for 60 min, the enzyme reaction is stopped by EDTA-containing buffer, which also contains europium-labeled (Eu^3+-Cryptate) anti-phosphotyrosine antibody (Cisbio) and Streptavidin-XL665 (Cisbio). The europium-labeled antibody generates a time-resolved FRET signal with the Stepavidin-XL665, which binds to the biotinylated TK substrate through the streptavidin conjugate when the substrate is phosphorylated. After one hour incubation at room temperature, fluoresence was measured with excitation of 320 nm and dual emission of 615 and 665 nm on an EnVision microplate reader. Signal is expressed in terms of a TR-FRET ratio (665:615).
(§1) IC50 values are determined using GraphPad Prism 5 software. The data were entered as an X-Y plot into the software as percent inhibition for each concentration of the drug. The concentration values of the drug were log transformed and the nonlinear regression was carried out using the “sigmoidal dose-response (variable slope)” option within the GraphPad software to model the data and calculate IC50 values. The IC50 values reported are the concentration of drug at which 50% inhibition was reached.
(§2) Activity (IC50) was determined in the BTK assays describe herein below, i.e. either the ADP generation assay and/or the time-resolved FRET assay, and the data are shown in Table III. The compound number corresponds to the compound numbers used in Table I. In the table below, “ADP Assay” refers to the assay which measures production of ADP resulting from use of ATP by the kinase; and “HTRF Assay” refers to the time resolved-FRET kinase assay described in the examples. Multiple values in a given column indicate the results of more than one assay for the given compound. Representative data of the type used to determine the IC50 values for the ADP assay in Table III are shown in FIG. 8 for compounds 3, 4, and 5.

[1] = Microsomal stability, positive control assays; type: in vitro ADME; conditions: microsomes used in the study
Experimental: Data were also obtained for the stability of Compound 3 when incubated with a microsomal preparation. Drug metabolism can occur, at least in part, in cellular microsomes, and thus the assay assesses the stability of drug to metabolic modification. The concentration of compound 3 was 1 μM in the assay system and the indicated microsomes were present at 0.5 mg total protein per milliliter. The concentration of intact drug was determined at the indicated timepoints using a LC-MS/MS assay. The enzyme activity of the microsomes used in this study were assessed using a positive control, testosterone.

[2] = molecular target: T1, recombinant full-length human BTK kinase (Homo sapiens, UniProt Q06187); experiment: BTK kinase assay: ADP generation assay (ADP-Glo); type: biochemical; conditions: 60 nM BTK, MBP substrate, 60 min
T1 construct: recombinant full-length human BTK kinase with a (His)6 tag; (His)6; purchased Invitrogen Corporation, Carlsbad, Calif
T1 sequence (Q06187 whole entry): as above
Experimental: The primary assay for compound inhibitory activity was the ADP generation assay described herein. Test compounds were diluted to desired concentrations in kinase reaction buffer and briefly incubated with recombinant full-length human BTK kinase with a (His)6 tag (81.3 kDa; Invitrogen Corporation, Carlsbad, Calif.). The assay as described is based on volumes used in a standard 384 well format using solid, white-wall plates. The reaction was subsequently initiated by the addition of ATP and myelin basic protein (MBP) substrate (Millipore Corporation, Waltham, Mass.). Composition of the assay reaction mixture ([…]) was: 5% v/v DMSO, 60 nM BTK, 1.6 µM ATP, and 20 µM MBP substrate. After incubation at room temperature for 60 min, […] (Promega Corporation, Madison, Wis.) was added to each well and incubated for an additional 40 minutes. The reagent stopped the kinase reaction and depleted the unconsumed ATP. Kinase Detection reagent ([…]; Promega Corporation) was then added to each well. The Kinase Detection reagent comprises reagents to convert ADP to ATP and provide luciferase and luciferin to detect ATP. Luminescence was measured on an EnVision microplate reader (PerkinElmer). The amount of luminescence from each reaction is directly correlated with BTK kinase activity. Percent inhibition and IC50 values were calculated by comparing enzyme activity in drug-treated wells to the appropriate controls.
as §1, §2

Pharmacokinetics in rat = type: in vivo, male Sprague Dawley rats; conditions: for AUC(0-t): read-out: AUC0-t
Experimental: The pharmacokinetic behavior of a representative disclosed compound, compound 3 (N-(3-(6-((3-morpholinophenyl)amino)-1H-pyrazolo[3,4-d]pyrimidin-4-yl)phenyl)acrylamide), which corresponds to compound 3 in Table I, was also evaluated in rat. A study was conducted using three male Sprague Dawley rats in each group as shown below:
The solution formulations were prepared as follows: (A) intravenous route (“i.v.”): a weighed quantity of 3 (10.45 mg) was transferred into a 10 mL clean glass vial. To this 0.231 mL of ethanol (4.5%) was added, vortexed and sonicated. To this 1.028 mL of propylene glycol (20%) was added, vortexed and sonicated. 1.543 mL of PEG400 (30%) was added, vortexed and sonicated. Finally 2.340 mL of water (45.5%) was added gradually, vortexed and sonicated to make a solution of 2 mg/mL concentration. The final solution was filtered using syringe filter (0.22 μm).; and (B) a weighed quantity of SC-1344 (27.43 mg) was transferred into a 10 mL clean glass vial. To this 0.304 mL of ethanol (4.5%) was added, vortexed and sonicated. To this 1.350 mL of propylene glycol (20%) was added, vortexed and sonicated. 2.024 mL of PEG400 (30%) was added, vortexed and sonicated. Finally 3.070 mL of water (45.5%) was added gradually, vortexed and sonicated to make a solution of 4 mg/mL concentration. The final solution was filtered using syringe filter (0.22 μm).
Bioanalysis was performed using fit-for-purpose LC-MS/MS method for the quantification of 3 in rat plasma samples. The calibration curve (CC) for the method consisted of nine non-zero calibration standards along with a double blank and zero standard samples. Study samples were analyzed along with two sets of quality control samples (6 QC samples; low, medium and high QC samples in triplicate). Briefly, the LC-MS/MS method used the following parameters: a) gradient mobile phase (Pump A: 0.1% Formic acid in water; Pump B: 100% methanol); b) XBridge C8, 50×4.6 mm, 3.5μ (Waters) column; c) 10 μL injection volume; d) 1.00 mL/min flow rate; e) 3.50 min run time; f) 10° C. sample cooler temperature; and g) 40° C. column oven temperature. The sample calibration curve was 1.02-1023 ng/mL, with an internal standard (telmisartan) at 0.2 μg/mL. Briefly, biological samples were prepared as follows: 50 μL of sample was mixed with 150 μL of internal standard, then mixture was vortexed for 5 min at 800 rpm, followed by centrifugation at 4000 rpm for 5 min; 150 μL of the sample supernatant was transferred into a separate tube and diluted with 75 μL of methanol: water (1:1), followed by injection into LC/MS/MS.
Plasma pharmacokinetic parameters were calculated using the non-compartmental analysis tool of Phoenix software (Version 6.3) and were determined from individual animals in each group. The area under the plasma concentration-time curve (AUC0-t and AUCinf), elimination half-life (T1/2), clearance (CL), volume of distribution (Vss) and Mean residence time (MRT) were calculated from intravenous group. The peak plasma concentration (Cmax), time to achieve peak plasma concentration (Tmax), AUC0-t and AUCinf, and absolute oral bioavailability (F) were calculated from the oral group.
The mean plasma concentration-time profiles are shown in FIGS. 10 and 11, i.e. the mean concentration values of the individual values obtained from each rat in the study group at the indicated time points.

[3] = male, Sprague Dawley, plasma, IV 5 mg/kg, solution

C=CC(=O)Nc1cccc(-c2nc(Nc3cccc(N4CCNCC4)c3)ncc2Cl)c1 [Compound 10, N-(3-(5-chloro-2-((3-(piperazin-1-yl)phenyl)amino)pyrimidin-4-yl)phenyl)acrylamide]
IC50 (BTK): 70 nM

C=CC(=O)Nc1cccc(-c2nc(Nc3cccc(N4CCOCC4)c3)nc3[nH]ccc23)c1 [Compound 8, N-(3-(2-((3-morpholinophenyl)amino)-7H-pyrrolo[2,3-d]pyrimidin-4-yl)phenyl)acrylamide]
IC50 (BTK): > 10000 nM

C[C@]12CC[C@H]3[C@@H](CCC4=CC(=O)CC[C@@]43C)[C@@H]1CC[C@@H]2O [testosterone]
Disappearance of positive control in microsomes [1]: rapid disappearance

C=CC(=O)Nc1cccc(-c2nc(Nc3cccc(N4CCNCC4)c3)nc3[nH]ncc23)c1 [Compound 9, N-(3-(6-((3-(piperazin-1-yl)phenyl)amino)-1H-pyrazolo[3,4-d]pyrimidin-4-yl)phenyl)acrylamide]
IC50 (BTK): 14 nM

C=CC(=O)Nc1cccc(-c2nc(Nc3cccc(N4CCOCC4)c3)nc3[nH]nc(Cl)c23)c1 [Compound 5, N-(3-(3-chloro-6-((3-morpholinophenyl)amino)-1H-pyrazolo[3,4-d]pyrimidin-4-yl)phenyl)acrylamide]
IC50 [2]: 96 nM | IC50 (BTK): 175 nM

C=CC(=O)Nc1cccc(-c2nc(Nc3cccc(N4CCOCC4)c3)nc3[nH]ncc23)c1 [SC-1344, N-(3-(6-((3-morpholinophenyl)amino)-1H-pyrazolo[3,4-d]pyrimidin-4-yl)phenyl)acrylamide]
Vss relative to total body water normalized to body weight (0.7 L/kg) (Pharmacokinetics in rat; IV 5 mg/kg): approximately 11 fold | clearance (Pharmacokinetics in rat; [3]): 79.7 mL/min/kg | half-life (Pharmacokinetics in rat; [3]): 2.71 h | AUC(0-t) (Pharmacokinetics in rat; [3]): 1060 ng·h/mL | Vd (Pharmacokinetics in rat; male, Sprague Dawley, plasma, IV 5 mg/kg, solution, read-out: Vss): 7.91 L/kg | bioavailability (Pharmacokinetics in rat; male, Sprague Dawley, plasma, PO 20 mg/kg vs IV 5 mg/kg, AUC0-t and nominal doses used, read-out: F (absolute oral bioavailability)): 2.44% | AUC(0-t) (Pharmacokinetics in rat; male, Sprague Dawley, plasma, PO 20 mg/kg, solution): 104 ng·h/mL | Cmax (Pharmacokinetics in rat; male, Sprague Dawley, plasma, PO 20 mg/kg, solution, read-out: Cmax): 23.1 ng/mL

C=CC(=O)Nc1cccc(-c2nc(Nc3cccc(N4CCN(C)CC4)c3)ncc2Cl)c1 [Compound 1, N-(3-(5-chloro-2-((3-(4-methylpiperazin-1-yl)phenyl)amino)pyrimidin-4-yl)phenyl)acrylamide]
IC50 [2]: 29 nM and 14 nM | IC50 (BTK): 14.2 nM

C=CC(=O)Nc1cc(-c2nc(Nc3cccc(N4CCOCC4)c3)nc3[nH]nc(Cl)c23)ccc1Cl [Compound 6, N-(2-chloro-5-(3-chloro-6-((3-morpholinophenyl)amino)-1H-pyrazolo[3,4-d]pyrimidin-4-yl)phenyl)acrylamide]
IC50 [2]: ≥ 100000 nM | IC50 (BTK): > 100000 nM

C=CC(=O)Nc1cccc(-c2nc(Nc3cccc(N4CCOCC4)c3)nc3[nH]cc(Cl)c23)c1 [Compound 7, N-(3-(5-chloro-2-((3-morpholinophenyl)amino)-7H-pyrrolo[2,3-d]pyrimidin-4-yl)phenyl)acrylamide]
IC50 [2]: 96 nM | IC50 (BTK): 175 nM

C=CC(=O)Nc1cccc(-c2nc(Nc3cccc(N4CCN(C)CC4)c3)nc3[nH]ncc23)c1 [Compound 4, N-(3-(6-((3-(4-methylpiperazin-1-yl)phenyl)amino)-1H-pyrazolo[3,4-d]pyrimidin-4-yl)phenyl)acrylamide]
IC50 [2]: 9 nM | IC50 (BTK): 9.1 nM

C=CC(=O)Nc1cccc(-c2nc(Nc3cccc(N4CCOCC4)c3)ncc2Cl)c1 [Compound 2, N-(3-(5-chloro-2-((3-morpholinophenyl)amino)pyrimidin-4-yl)phenyl)acrylamide]
IC50 [2]: 70 nM
